The supplement of paper PMC11061612

Assays:
Experiment in all cases: Bliss excess, mean over the matrix (fraction); higher = more synergy
[1] = system: KM-H2 (Hodgkin's Lymphoma)
In short: (§1)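 Cell lines grown in DMEM/F12 or RPMI with 10% FBS were plated in 1536-well plates and held 24 hours at 37°C, 5% CO2 before 72 hours of exposure to two-drug dose matrices, with DMSO typically at 0.2%. CellTiter-Glo 2.0 luminescence gave viability, which was converted to inhibition. Vehicle wells were set to 0 and blank wells to 1. Combination Emax is the second-highest inhibition in the matrix, and Bliss excess is the observed combination effect minus the expected EA + EB − EA·EB, where EA and EB are the single-agent effects.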

[2] = system: HT-29 (Colorectal Carcinoma)
In short: as §1

[3] = system: KARPAS-1106P (B-Cell Non-Hodgkin's Lymphoma)
In short: as §1

[4] = system: NCI-H1694 (Small Cell Lung Carcinoma)
In short: as §1

[5] = system: COR-L95 (Small Cell Lung Carcinoma)
In short: as §1

[6] = system: SW1990 (Pancreatic Carcinoma)
In short: as §1

[7] = system: CFPAC-1 (Pancreatic Carcinoma)
In short: as §1

NCI-H2595 (Mesothelioma) = system: NCI-H2595 (Mesothelioma)
In short: as §1

[8] = system: SW756 (Cervical Carcinoma)
In short: as §1

RH-1 (Ewing's Sarcoma) = system: RH-1 (Ewing's Sarcoma)
In short: as §1

[9] = system: DMS-273 (Small Cell Lung Carcinoma)
In short: as §1

NCI-H2369 (Mesothelioma) = system: NCI-H2369 (Mesothelioma)
In short: as §1

J82 (Bladder Carcinoma) = system: J82 (Bladder Carcinoma)
In short: as §1

[10] = system: SW780 (Bladder Carcinoma)
In short: as §1

[11] = system: COR-L23 (Non-Small Cell Lung Carcinoma)
In short: as §1

[12] = system: G-292-Clone-A141B1 (Osteosarcoma)
In short: as §1

[13] = system: SW1088 (Low Grade Glioma)
In short: as §1

[14] = system: MDA-MB-231 (Breast Carcinoma)
In short: as §1

[15] = system: TE-5 (Esophageal Squamous Cell Carcinoma)
In short: as §1

[16] = system: MFH-ino (Other Solid Carcinomas)
In short: as §1

Structure (SMILES) | Bliss excess [1] | Bliss excess [2] | Bliss excess [3] | Bliss excess [4] | Bliss excess [5] | Bliss excess [6] | Bliss excess [7] | Bliss excess (NCI-H2595 (Mesothelioma)) | Bliss excess [8] | Bliss excess (RH-1 (Ewing's Sarcoma)) | Bliss excess [9] | Bliss excess (NCI-H2369 (Mesothelioma)) | Bliss excess (J82 (Bladder Carcinoma)) | Bliss excess [10] | Bliss excess [11] | Bliss excess [12] | Bliss excess [13] | Bliss excess [14] | Bliss excess [15] | Bliss excess [16]
CC(=O)c1c(C)c2cnc(Nc3ccc(N4CCNCC4)cn3)nc2n(C2CCCC2)c1=O [Palbociclib] + CC1(C)CCC(CN2CCN(c3ccc(C(=O)NS(=O)(=O)c4ccc(NCC5CCOCC5)c([N+](=O)[O-])c4)c(Oc4cnc5[nH]ccc5c4)c3)CC2)=C(c2ccc(Cl)cc2)C1 [Venetoclax] (first compound max 10 µM, 7x7, partner max 1 µM) | -0.0011 | -0.0139 | -0.0424 | 0 | -0.0581 | -0.0239 | 0.015 | -0.0557 | -0.062 | 0.0175 | -0.0263 | -0.0543 | -0.0388 | -0.0395 | -0.0429 | -0.0368 | -0.018 | -0.0242 | -0.0558 | -0.0576
COc1cccc(OCCCN)c1-c1cc(Nc2cnc(C#N)cn2)n[nH]1 [Prexasertib] + O=C(c1cc(Cc2n[nH]c(=O)c3ccccc23)ccc1F)N1CCN(C(=O)C2CC2)CC1 [Olaparib] (first compound max 1 µM, 7x7, partner max 10 µM) | -0.0611 | -0.0732 | -0.0936 | -0.0596 | -0.121 | -0.0617 | -0.0834 | -0.0053 | 0.0038 | -0.0203 | -0.0009 | -0.0284 | 0.033 | -0.009 | 0.0116 | -0.0443 | -0.0707 | -0.127 | 0.0048 | -0.0326
Cc1cc2ncnn2cc1Nc1ncc2c(n1)n(C1CCOCC1)c(=O)n2C [AZD7648] + CN(C)CCCOc1ccc(-c2ccc3ncc4c(c3c2)n(C2CCOCC2)c(=O)n4C)cn1 [AZD0156] (first compound max 10 µM, 7x7, partner max 1 µM) | 0.0208 | 0.0289 | 0.0083 | 0.0062 | -0.0218 | -0.0182 | 0.0064 | -0.0373 | 0.0076 | 0.0087 | 0.05 | 0.0327 | -0.0131 | -0.0069 | -0.0212 | -0.0261 | -0.0698 | 0.0146 | -0.0362 | -0.0299
CS(=O)(=O)CCNCc1ccc(-c2ccc3ncnc(Nc4ccc(OCc5cccc(F)c5)c(Cl)c4)c3c2)o1 [Lapatinib] + C[C@@H](Oc1cc(-c2cnn(C3CCNCC3)c2)cnc1N)c1c(Cl)ccc(F)c1Cl [Crizotinib] (first compound max 10 µM, 7x7, partner max 10 µM) | 0.0018 | -0.0475 | -0.0483 | 0.025 | -0.0529 | -0.0042 | -0.077 | -0.0198 | -0.0138 | -0.0553 | 0.0146 | -0.0253 | -0.0317 | -0.0364 | -0.0296 | -0.0506 | -0.0612 | -0.042 | -0.0054 | -0.0902
CC(=O)Nc1cccc(-n2c(=O)n(C3CC3)c(=O)c3c(Nc4ccc(I)cc4F)n(C)c(=O)c(C)c32)c1 [Trametinib] + Cc1nc(-c2cn3c(n2)-c2ccc(-c4cnn(C(C)(C)C(N)=O)c4)cc2OCC3)n(C(C)C)n1 [Taselisib] (first compound max 1 µM, 7x7, partner max 10 µM) | 0.0338 | 0.0526 | 0.088 | 0.0583 | 0.0096 | 0.148 | 0.148 | 0.0412 | 0.0988 | 0.0194 | 0.0427 | 0.046 | 0.0623 | 0.129 | 0.162 | 0.0804 | 0.0579 | 0.142 | 0.101 | 0.148
Cc1c2c(nn1C)CSCc1cc(n(C)n1)CSc1cc(c3ccccc3c1)OCCCc1c(C(=O)O)n(C)c3c-2c(Cl)ccc13 [AZD5991] + CN(C)CCCOc1ccc(-c2ccc3ncc4c(c3c2)n(C2CCOCC2)c(=O)n4C)cn1 [AZD0156] (first compound max 1 µM, 7x7, partner max 1 µM) | -0.0139 | 0.0078 | -0.0352 | 0.0033 | -0.0328 | 0.0159 | 0.0066 | -0.0082 | -0.0015 | 0.0081 | 0.0401 | 0.0002 | 0.0127 | -0.0103 | -0.0086 | -0.025 | -0.0356 | -0.0133 | -0.0081 | -0.0286
C=CCn1c(=O)c2cnc(Nc3ccc(N4CCN(C)CC4)cc3)nc2n1-c1cccc(C(C)(C)O)n1 [AZD1775] + O=C(c1cc(Cc2n[nH]c(=O)c3ccccc23)ccc1F)N1CCN(C(=O)C2CC2)CC1 [Olaparib] (first compound max 1 µM, partner max 10 µM) | 0.0084 | -0.0368 | -0.0513 | -0.036 | -0.101 | -0.0697 | -0.0585 | -0.0218 | -0.0416 | 0.044 | -0.0334 | -0.084 | -0.025 | -0.0262 | -0.0182 | 0.0161 | 0.0045 | -0.0267 | -0.0488 | -0.0128
